Columns and labels:
[1] = molecular target: T1, Dihydrofolate reductase (Pneumocystis carinii, UniProt P16184)
T1 sequence (P16184 whole entry): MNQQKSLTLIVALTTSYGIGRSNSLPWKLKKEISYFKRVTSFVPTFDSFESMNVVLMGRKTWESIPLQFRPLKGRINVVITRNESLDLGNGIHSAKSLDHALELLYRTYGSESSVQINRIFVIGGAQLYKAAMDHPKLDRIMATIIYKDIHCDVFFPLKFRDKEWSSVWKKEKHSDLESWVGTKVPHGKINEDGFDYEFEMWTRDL
Description: Concentration inhibiting Pneumocystis carinii dihydrofolate reductase

[2] = molecular target: T2, Bifunctional dihydrofolate reductase-thymidylate synthase (Toxoplasma gondii, UniProt Q07422); experiment: Concentration inhibiting Toxoplasma gondii dihydrofolate reductase
T2 sequence (Q07422 whole entry): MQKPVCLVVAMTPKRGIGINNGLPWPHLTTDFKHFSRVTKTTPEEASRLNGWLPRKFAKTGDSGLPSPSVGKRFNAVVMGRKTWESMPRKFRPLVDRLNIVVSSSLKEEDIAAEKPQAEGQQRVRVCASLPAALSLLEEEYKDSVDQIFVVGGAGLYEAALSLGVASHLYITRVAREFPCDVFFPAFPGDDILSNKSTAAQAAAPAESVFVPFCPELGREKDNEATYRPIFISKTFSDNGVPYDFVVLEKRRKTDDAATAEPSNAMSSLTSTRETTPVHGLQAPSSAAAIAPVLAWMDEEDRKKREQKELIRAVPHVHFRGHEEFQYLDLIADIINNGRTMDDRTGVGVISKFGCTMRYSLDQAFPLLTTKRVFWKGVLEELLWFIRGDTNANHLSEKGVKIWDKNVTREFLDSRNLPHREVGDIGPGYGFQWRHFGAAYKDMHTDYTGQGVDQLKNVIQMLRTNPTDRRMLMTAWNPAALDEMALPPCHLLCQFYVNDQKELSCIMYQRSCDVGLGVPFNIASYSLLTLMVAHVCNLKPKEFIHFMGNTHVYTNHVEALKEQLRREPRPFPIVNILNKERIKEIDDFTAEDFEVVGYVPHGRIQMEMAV

[3] = molecular target: T3, Dihydrofolate reductase (Rattus norvegicus, UniProt Q920D2)
T3 sequence (Q920D2 whole entry): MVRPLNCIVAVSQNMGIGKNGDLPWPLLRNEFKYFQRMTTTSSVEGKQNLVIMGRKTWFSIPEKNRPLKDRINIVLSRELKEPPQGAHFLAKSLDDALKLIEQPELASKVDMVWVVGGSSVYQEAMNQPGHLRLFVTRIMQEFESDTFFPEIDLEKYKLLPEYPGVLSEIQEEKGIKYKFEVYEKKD
Description: Concentration inhibiting rat liver dihydrofolate reductase.

IC50 [1] [nM] | IC50 [3] [nM] | SMILES | IC50 [2] [nM]
62 | 22 | CN(Cc1ccc2nc(N)nc(N)c2n1)c1ccc(Cl)cc1 | 15
130 | 26 | COc1cc(N(C)Cc2ccc3nc(N)nc(N)c3n2)cc(OC)c1OC | 4.7
2100 | 67 | CN(Cc1ccc2nc(N)nc(N)c2n1)c1cccc(Cl)c1 | 20
22 | 32 | CN(Cc1ccc2nc(N)nc(N)c2n1)c1ccc(Cl)c(Cl)c1 | 98

Further lines, the compound ahead of its results:

SMILES | IC50 [1] [nM] | IC50 [3] [nM] | IC50 [2] [nM]
COc1cc(NCc2ccc3nc(N)nc(N)c3n2)cc(OC)c1OC | 2600 |  | 82
COc1ccc(OC)c(NCc2ccc3nc(N)nc(N)c3n2)c1 | 1400 | 430 | 100

From ChEMBL document CHEMBL1128717, “2,4-Diaminopyrido[3,2-d]pyrimidine inhibitors of dihydrofolate reductase from Pneumocystis carinii and Toxoplasma gondii” (J Med Chem, 1995)
